Laboratory results: publication PMC4890880 (ACS infectious diseases, 2016)
Like-named read-outs stand apart in the source and are kept apart here.

Tested on: HepG2-A16-CD81EGFP cells
Details: for IC50: read-out: Tox_IC50, HepG2 cytotoxicity
[1] = sheet 2nd round, maximal inhibition in dose response

SMILES | IC50 (sheet "2nd round") | Tox_max_inhibition (%) (sheet "2nd round") | IC50 (sheet 2nd round) | Tox_max_inhibition (%) [1]
CN1C(=O)c2cc(NC(=O)c3ccc(C(F)(F)F)cc3)ccc2OC[C@H]2O[C@H](CC(=O)NCc3ccc4c(c3)OCO4)CC[C@@H]21 [BRD-K92009254-001-01-6] | 8.97 µM | 53% | – | –
Cc1ccccc1-c1ccc([C@@H]2[C@H](CO)N3CCCCN(S(=O)(=O)Cc4ccccc4)C[C@@H]23)cc1 [BRD-K92048968-001-01-1] | – | – | > 10 µM | 7%
C[C@@H]1CN([C@@H](C)CO)C(=O)c2cccc(NC(=O)c3cnccn3)c2O[C@@H]1CN(C)Cc1ccc(-c2ccccc2)cc1 [BRD-K92545585-001-01-9] | – | – | > 10 µM | 4.65%
C[C@@H]1CCCCO[C@H](CN(C)S(=O)(=O)c2ccccc2)[C@@H](C)CN([C@@H](C)CO)C(=O)c2cc(NC(=O)Nc3ccc4c(c3)OCO4)ccc2O1 [BRD-K94107458-001-01-0] | > 10 µM | 5% | – | –
O=C(Nc1ccc(F)cc1)N1C[C@@H]2[C@H](c3ccccc31)[C@@H](CO)N2Cc1ccccc1Cl [BRD-K95406835-001-01-9] | – | – | > 10 µM | 4.68%
O=C(C1CC1)N1C[C@@H]2N[C@H](C1)C2c1ccc(-c2ccccc2F)cc1 (stereo partly drawn) [BRD-K95724677-019-01-8] | – | – | 3.72 µM | 93%
C[C@@H]1CCCCO[C@@H](CN(C)Cc2ccc(Cl)c(Cl)c2)[C@@H](C)CN([C@@H](C)CO)C(=O)c2cc(NS(=O)(=O)c3cccs3)ccc2O1 [BRD-K97609851-001-01-5] | – | – | > 10 µM | 39%
Cc1ccc(S(=O)(=O)N(C)C[C@H]2Oc3cc(C#CC4CCCC4)ccc3S(=O)(=O)N([C@@H](C)CO)C[C@H]2C)cc1 [BRD-K99467823-001-01-1] | – | – | > 10 µM | 31%
N#C[C@@H]1[C@H](c2ccccc2)[C@H](CO)N1C(=O)Nc1cccc(F)c1 [BRD-K99496840-001-01-9] | – | – | > 10 µM | 4.23%
